Source: patent US11420975B2, “Substituted imidazo[1,5-a]pyrazines as Bruton's tyrosine kinase inhibitors” (TRANSTHERA SCIENCES (NANJING), INC., priority 2018, dated 2022)
Read-outs that look alike come from different tables or passages of the source.

Legend:
[1] = Pharmacokinetic study in male beagle dogs, intragastric; format: in vivo; conditions: dog, 5 mg/kg
Experimental: Three adult male beagle dogs were fasted overnight before test. The test drugs were each suspended in a solution of 0.5% methylcellulose (MC) and 0.1% SDS in deionized water (w/w/v), and the suspension, each at a concentration of 1 mg/mL, was administered intragastrically at 5 mL/kg. Blood was collected 15 min, 30 min, 1 h, 2 h, 4 h, 6 h, 8 h and 24 h after administration. Animals were lightly anesthetized with chloral hydrate, and approximately 0.5 mL of whole blood was collected from the forelimb vein using a glass blood collection tube and placed in a heparin anticoagulant tube. The sample was centrifuged at 4° C./4200 rpm for 5 min. All plasma samples were stored in a refrigerator at −80±15° C. prior to analysis. An LC-MS/MS (Waters I Class UPLC-Xevo TQD tandem mass spectrometry) assay for the compounds was established prior to sample analysis. The collected plasma was quantitatively analyzed, plasma concentration-time data of animals were analyzed using WinNonlin (professional edition, version 5.2) software, a non-compartmental model was used for concentration analysis, and the pharmacokinetic parameters of the test compounds were calculated.

TMD-8 = experiment: In vitro tumor cell proliferation inhibition, TMD-8 (CellTiter-Glo); format: cell-based; conditions: Homo sapiens, TMD8; TMD-8 cells, 72 h
Experimental: (1) Method • The tumor cell line (TMD-8/OCY-LY10) was suspended in RPMI1640+FBS10% and cultured in an incubator (37° C., 5% CO2). Cells were passaged periodically, and cells at logarithmic growth phase were collected for plating. • Cell staining was performed with trypan blue and viable cells were counted. • Cell concentration was adjusted to 7000 cells/well with medium. • 90 μL of cell suspension was added to a 96-well plate and cell-free culture medium was added to the blank control wells. • Cells in the 96-well plate were incubated overnight in an incubator (37° C., 5% CO2, 100% relative humidity). • Preparation of 400× compound storage plates: test compounds and reference drug were each dissolved in DMSO and 3× diluted from the highest concentration (400 μM) to the lowest concentration (0.61 μM). • Preparation of 10× compound working solutions: 78 μL of cell culture medium was added to a V-bottom 96-well plate, and 2 μL of the compound was pipetted from the 400× compound storage plate into the 96-well plate. Vehicle control wells and blank control wells were added with 2 μL of DMSO. […] Inhibition rates of compounds at different concentrations were calculated in Excel, followed by plotting the inhibition curves and calculating IC50 values with GraphPad Prism.

OCI-LY10 xenograft tumor = OCI-LY10 xenograft tumor model; format: in vivo; conditions: for TGI: bid
Experimental: CB17/SCID female mice with serious immune deficiency were purchased from Beijing Vital River Laboratory Animal Technology Co., Ltd. and bred in SPF animal houses. Human OCI-LY10 cells (Shanghai Junrui-UFBN0102) were cultured in an RPMI 1640 culture medium containing 10% fetal bovine serum, 100 U/mL penicillin and 100 μg/mL streptomycin through monolayer culture in vitro in an incubator (37° C., 5% C02). Routine treatment was performed twice a week for passaging. At a cell saturation of 80%-90% and a required number, the cells were harvested and counted. 0.2 mL (1×10^7) of OCI-LY10 cells (together with matrigel at a volume ratio of 1:1) were subcutaneously inoculated into the right back of each mouse, and the tumor size could be measured about one week after inoculation. Tumor size was measured using a vernier caliper and tumor volume was calculated using the following formula: tumor volume=(length×width^2)/2.

BTK(C481S) = BTK(C481S) (Homo sapiens (Human), UniProt Q06187, C481S); experiment: In vitro inhibitory activity against BTK(C481S) enzyme (33P-ATP filter binding); format: biochemical; conditions: class symbols; read-out: IC50 BTK(C48IS)
Sequence of BTK(C481S) (Q06187 whole entry C481S): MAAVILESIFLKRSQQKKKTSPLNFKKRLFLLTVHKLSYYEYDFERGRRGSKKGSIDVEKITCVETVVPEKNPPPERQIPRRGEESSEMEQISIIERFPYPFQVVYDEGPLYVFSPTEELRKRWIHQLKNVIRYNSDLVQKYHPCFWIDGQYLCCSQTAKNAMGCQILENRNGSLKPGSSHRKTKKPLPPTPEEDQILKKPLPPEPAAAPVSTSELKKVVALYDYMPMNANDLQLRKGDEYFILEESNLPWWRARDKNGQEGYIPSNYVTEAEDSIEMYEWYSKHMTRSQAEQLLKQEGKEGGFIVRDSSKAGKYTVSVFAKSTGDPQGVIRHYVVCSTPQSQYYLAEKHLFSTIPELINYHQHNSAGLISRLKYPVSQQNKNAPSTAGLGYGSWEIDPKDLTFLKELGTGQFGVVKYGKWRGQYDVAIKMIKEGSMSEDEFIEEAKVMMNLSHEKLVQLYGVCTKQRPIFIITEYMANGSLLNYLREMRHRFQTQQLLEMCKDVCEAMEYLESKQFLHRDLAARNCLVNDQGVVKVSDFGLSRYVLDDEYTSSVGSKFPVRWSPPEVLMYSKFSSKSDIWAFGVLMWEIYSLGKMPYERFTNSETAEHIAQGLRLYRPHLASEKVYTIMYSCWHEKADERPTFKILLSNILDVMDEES
Experimental: The substrate solution was prepared by adding the substrate poly(Glu, Tyr) sodium salt (Sigma Aldrich, St. Louis, Mo.) to the substrate reaction buffer (20 mM Hepes (pH 7.5), 10 mM MgCl2, 1 mM EGTA, 0.02% Brij35, 0.02 mg/mL BSA, 0.1 mM Na3VO4, 2 mM DTT and 1% DMSO) (final substrate concentration in the reaction solution was 0.2 μM). Test compound was formulated into stock solutions at 10 mM concentration with 100% DMSO, and 3-fold serial dilution for 10 doses was performed in a 384-well cyclic olefin copolymer LDV microplate. […] Test compound in 100% DMSO was then added to the kinase reaction mixture by acoustic liquid transfer technology (Echo 550; nanoliter range) (Labcyte Inc, Sunnyvale, Calif.) and incubated for 20 min at room temperature. 33P-ATP (specific activity 10 μCi/μL) was added to the reaction mixture to initiate the reaction, followed by incubation at room temperature for 2 h. A small portion of the reaction mixture was dropped onto P-81 ion exchange filter paper (Whatman). After washing the unbound phosphate from the filter paper with 0.75% phosphate buffer (three times) and drying, the remaining radioactivity on the filter paper was measured. The kinase activity was expressed as the percentage of the remaining kinase activity in the test sample to the kinase activity in the vehicle (dimethyl sulfoxide) blank control. IC50 values were calculated by curve fitting the data obtained using Prism (GraphPad Software).

Compound `Nc1nccn2c(C34CCC(NC(=O)CN5CCOCC5)(CC3)C4)nc(-c3ccc(C(=O)Nc4cc(C(F)(F)F)ccn4)cc3)c12` [Compound A-10-10, 4-(8-amino-3-(4-(2-morpholinoacetamido)bicyclo[2.2.1]heptan-1-yl)imidazo[1,5-a]pyrazin-1-yl)-N-(4-(trifluoromethyl)pyridin-2-yl)benzamide] has an AUC0-INF ([1]; p.o.) of 14867 ng·h/mL, a Cmax ([1]; p.o.) of 641 ng/mL and an AUC(0-inf) ([1]; male, beagle, plasma, po) of 14900 ng·h/mL. For the same compound, the Tmax ([1]; male, beagle, plasma, po) was 8 h, the half-life ([1]; male, beagle, plasma, po) was 14.2 h and the Cmax ([1]; male, beagle, plasma, po, p.o., read-out: Cmax) was 641 ng/mL. For the same compound, the IC50 (TMD-8) was 2.9 nM, the xenograft tumors disappearance (OCI-LY10 xenograft tumor; 25 mg/kg group, after 28 days of administration) was “disappeared completely” and the xenograft tumors disappearance (OCI-LY10 xenograft tumor; 50 mg/kg group, after 21 days of administration) was “completely disappeared”. The “tolerance of tumor-bearing mice” value (OCI-LY10 xenograft tumor; all dosages) was “good tolerance”, the “effect on body weight of tumor-bearing mice” value (OCI-LY10 xenograft tumor; all treatment groups) was “no significant weight loss” and the TGI (OCI-LY10 xenograft tumor; intragastric 25 mg/kg) was 110%. For the same compound, the TGI (OCI-LY10 xenograft tumor; intragastric 50 mg/kg) was 110% and the IC50 (BTK(C481S)) was ≤ 0.1 nM.
